Data reported in publication PMC12459020, “Chemical Probes that Target a Dissociative LuxR-Type Quorum Sensing Receptor in Gram-Negative Bacteria” (ACS Chemical Biology, 2025).
“Also recorded” adds a separate entry of the source. Read-outs that look alike come from different tables or passages of the source.

Assays:
EsaR [1] = target: T1, EsaR (Pantoea stewartii subsp. stewartii, UniProt P54293); assay: cell-based; conditions: for activation at 100 µM / inhibition at 100 µM: 3.5 h; for activation at 100 µM: read-out: EsaR-repressed (pesaR) [%] agonism; for inhibition at 100 µM: read-out: EsaR-repressed (pesaR) antagonism
T1 construct: expressed in transfected cells; host or cells: E. coli JLD271 (K12 ΔsdiA), arabinose-induced pJN105-esaR
Excerpt: (§1) EsaR transcriptional activation and repression were examined using E. coli and P. stewartii reporters (strains and plasmids listed in Table S1; see Methods section for assay details). […] We constructed reporters in E. coli based on previously reported EsaR reporters (Table S1). Each strain contained an EsaR expression plasmid (pJN105-esaR) and a reporter plasmid with either an EsaR-activated promoter (pesaS) or an EsaR-repressed promoter (pesaR) upstream of luxABCDE or GFP.
(§2) Gibson assembly was used to create all constructs. Plasmid pJN105-esaR was created by amplifying esaR from pAC-esaR and inserting it into pJN105. pesaSlux was created by inserting pesaS, amplified from pPesaR-AC:gfp, into the pCS-pesaRlux backbone. The pesaR promoter was amplified from pCS-pesaRlux and inserted into the pPesaR-AC:gfp backbone to create pesaR:GFP. P. stewartii reporter strains were created by transforming pesaR:GFP or pPesaR-AC:gfp into ESN51 by conjugation using E. coli S17 λpir as the donor strain. See SI for details of E. coli ExpR2 reporter construction.
(§3) Overnight cultures were diluted 1:10 in LB medium with appropriate antibiotics and grown at 37 °C (200 rpm) to an OD600 of 0.22–0.27 before induction with 4 mg mL^–1 arabinose. OD600 was measured by placing 200 μL of culture into a 96-well plate and reading optical density using the BioTek Synergy 2 plate reader. Assays were performed in technical triplicate in clear-bottom, white and clear-bottom, black 96-well microtiter plates (Corning Costar 3903 and 3904) for luminescence and fluorescence reporters, respectively. Compounds were dissolved in DMSO, and 2 μL of this stock, or DMSO as a negative control, was added to each well prior to adding 198 μL of induced culture. Plates were incubated at 37 °C (200 rpm) for 3.5 h. Each well was mixed by pipetting before reading OD600 and either luminescence or fluorescence. Single-point screens were performed with one or two biological replicates, and all dose–response curves were performed in biological triplicate. EC50 values were calculated based on a nonlinear regression of log(concentration) vs response (three parameters) using GraphPad Prism 9 software.

ExpR1 = conditions: cited from earlier work; for ExpR1 antagonism: 5 µM compound against 5 µM OHHL, negative values indicate potential activators, ref 6 (SI; Palmer et al., 2011); for ExpR1 [%] (agonism, activation): compounds at 200 μM, cellulase activity in P. versatile AC5117, ref Palmer et al., 2011 (main ref 44, SI ref 6)
ExpR2 = conditions: cited from earlier work; for ExpR2 antagonism (percent inhibition): 5 µM compound against 5 µM OHHL, negative values indicate potential activators; for ExpR2 antagonism (percent inhibition) / IC50: ref 6 (SI; Palmer et al., 2011); for ExpR2 [%] (agonism, percent activation): compounds at 200 μM, cellulase activity in P. versatile AC5099, ref Palmer et al., 2011 (main ref 44, SI ref 6); for IC50: previously reported phenotypic reporter data
EsaR [2] = target: T1, EsaR; assay: cell-based; conditions: for activation at 100 µM / inhibition at 100 µM: 3.5 h; for activation at 100 µM: read-out: EsaR-activated (pesaS) [%] agonism; for inhibition at 100 µM: read-out: EsaR-activated (pesaS) antagonism; for EsaR agonism, in words: E. coli EsaR reporters, primary screen at 100 μM
Excerpt: as §1, §2, §3

LuxR = conditions: cited from earlier work; for LuxR antagonism: 5 µM compound against 5 µM OHHL, negative values indicate potential activators, ref 6 (SI; Palmer et al., 2011); for LuxR [%] (agonism, activation): compounds at 200 μM, luminescence in V. fischeri ES114 (ΔluxI), ref Palmer et al., 2011 (main ref 44, SI ref 6)

T1 sequence (P54293 whole entry): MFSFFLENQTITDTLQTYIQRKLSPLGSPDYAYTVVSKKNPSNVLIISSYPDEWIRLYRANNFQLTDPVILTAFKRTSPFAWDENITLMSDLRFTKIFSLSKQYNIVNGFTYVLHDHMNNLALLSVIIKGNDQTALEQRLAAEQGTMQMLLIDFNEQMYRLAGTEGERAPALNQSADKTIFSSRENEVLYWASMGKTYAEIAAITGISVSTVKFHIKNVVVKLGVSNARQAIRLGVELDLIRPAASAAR

| SMILES | activation at 100 µM (EsaR [1]) | inhibition at 100 µM (EsaR [1]) | ExpR1 antagonism (ExpR1) | ExpR1 [%] (agonism, activation) (ExpR1) | ExpR2 antagonism (percent inhibition) (ExpR2) | ExpR2 [%] (agonism, percent activation) (ExpR2) | activation at 100 µM (EsaR [2]) | inhibition at 100 µM (EsaR [2]) | EsaR agonism, in words (EsaR [2]) | fold less potent than OHHL in EsaR (EC50 ratio) (EsaR [2]; E. coli EsaR-activated reporter EC50 values) | LuxR antagonism (LuxR) | LuxR [%] (agonism, activation) (LuxR) | IC50 (ExpR2) | EC50 (EsaR [1]) | EC50 (EsaR [2]) |
| --- | --- | --- | --- | --- | --- | --- | --- | --- | --- | --- | --- | --- | --- | --- | --- |
| O=C(Cc1cccc(I)c1)N[C@H]1CCOC1=O [C11, 3-iodo PHL] | 44% | -56% | 83% | 32% | 63% | 61% | 65% | -57% | agonized EsaR | ~300 fold | 78% | 28% | – | – | – |
| O=C(Cc1ccccc1I)N[C@H]1CCOC1=O [C12] | 9% | 4% | 65% | 11% | 55% | 24% | -9% | -12% | – | – | 63% | 7% | – | – | – |
| O=C(Cc1ccc([N+](=O)[O-])cc1)N[C@H]1CCOC1=O [C13] | 14% | 12% | 44% | 15% | 32% | 24% | 14% | -29% | – | – | 47% | 24% | – | – | – |
| O=C(Cc1ccccc1[N+](=O)[O-])N[C@H]1CCOC1=O [C15] | -1% | 0% | 27% | 9% | 3% | 19% | -10% | -6% | – | – | 23% | 4% | – | – | – |
| CCCCCCCCCC(=O)N[C@H]1CCOC1=O [DHL, reference compound] | 4% | -59% | 91% | 6% | 76% | 44% | 17% | -11% | – | – | 96% | 12% | 900 nM | – | – |
| Cc1cccc(CC(=O)N[C@H]2CCOC2=O)c1 [E1] | 12% | 2% | 74% | 6% | 62% | 13% | 25% | 1% | – | – | 78% | 5% | – | – | – |
| COc1cccc(CC(=O)N[C@H]2CCOC2=O)c1 [E2] | 3% | -42% | 68% | 4% | 59% | 24% | 4% | 0% | – | – | 71% | 7% | – | – | – |
| CSc1cccc(CC(=O)N[C@H]2CCOC2=O)c1 [E7, 3-SCH3 PHL] | 11% | -3% | 79% | 0% | 71% | 13% | 23% | -26% | nearly inactive | – | 88% | 4% | – | – | – |
| O=C(Cc1cc(C(F)(F)F)cc(C(F)(F)F)c1)N[C@H]1CCOC1=O [E9] | 41% | -17% | 4% | 9% | 16% | 15% | 60% | -67% | – | – | 0% | 107% | – | – | – |
| O=C(Cc1ccc2ccccc2c1)N[C@H]1CCOC1=O [E12] | 7% | 37% | 58% | 8% | 5% | 56% | 0% | -10% | – | – | 83% | 2% | – | – | – |
| O=C(Cc1cccc2ccccc12)N[C@H]1CCOC1=O [E13] | 0.5% | -11% | 69% | 7% | -6% | 95% | -11% | -2% | – | – | 84% | 3% | – | – | – |
| CCCCCC(=O)N[C@H]1CCOC1=O [HHL, hexanoyl HL, reference compound] | 98% | -126% | 67% | 5% | 12% | 94% | 100% | -96% | strongly activated | – | 69% | 2% | – | – | – |
| O=C(Cc1ccc(Br)cc1)N[C@H]1CCOC1=O [K3] | 18% | -76% | 71% | 4% | 62% | 25% | 9% | -24% | – | – | 79% | 3% | 850 nM | – | – |
| CCCCCCCC(=O)CC(=O)N[C@H]1CCOC1=O [ODHL, reference compound] | 37% | -94% | 42% | 6% | 33% | 48% | 65% | -69% | – | – | 47% | 2% | – | ≥ 101000 nM | ≥ 65000 nM |
| CCCCCCCC(=O)N[C@H]1CCOC1=O [OHL, octanoyl HL, reference compound] | 91% | -40% | 78% | 19% | 38% | 79% | 98% | -95% | strongly activated; also recorded: agonized EsaR | – | 86% | 25% | – | – | – |
| CCCCCC(=O)CC(=O)N[C@H]1CCOC1=O [OOHL, 3-(oxo)-octanoyl HL, reference compound] | 91% | -138% | 65% | 29% | 26% | 78% | 100% | -89% | strongly activated | – | 63% | 24% | – | – | – |
